Laboratory results published in patent US8163795B2, “Chroman derivatives, medicaments and use in therapy” (Marshall Edwards, Inc., priority 2004, dated 2012).
Where two headings read alike, the source gives them in different places.

Experiments:
[1] = test system: HPAC (CRL-2119) pancreatic cancer cell line; test: Proliferation assay (MTT); type: cell-based, human; conditions: Homo sapiens, HPAC, read-out: IC50
[2] = test system: Neonatal foreskin fibroblasts (NFF); test: Proliferation assay (MTT), normal cell toxicity; type: cell-based, Human; conditions: Homo sapiens, Fibroblast, read-out: IC50
Method: The normal cell line NFF (neonatal foreskin fibroblasts) was a sift from Dr. Peter Parsons (Queensland Institute of Medical Research). RK (rabbit kidney) cells were obtained from Miller Whalley (Macquarie University). Both cell lines were cultured in RPMI supplemented with 10% FCS(CSL, Australia), penicillin (100 U/ml), streptomycin ([…]), L-glutamine (2 mM) and sodium bicarbonate (1.2 g/L), and cultured at 37° C. in a humidified atmosphere of 5% CO2.
(§1) IC50 values were determined for each cell line. Cells were seeded in 96-well plates at an appropriate cell density as determined from growth kinetics analysis and cultured for 5 days in the absence and presence of the test compounds. Cell proliferation was assessed after the addition of 20 μl of 3-4,5 dimethylthiazol-2,5-diphenyl tetrazolium bromide (MTT, 2.5 mg/ml in PBS, Sigma) for 3-4 hrs at 37° C. according to manufacturer's instructions. IC50 values were calculated from semi-log plots of % of control proliferation on the y-axis against log dose on the x-axis.

[3] = test system: SKOV-3 ovarian cancer cell line; test: Proliferation assay (MTT); type: cell-based; conditions: Homo sapiens, SK-OV-3; Table 2.1; Ovarian SKOV-3; read-out: IC50
[4] = DHE and HMC pharmacokinetics, oral, mice; type: in vivo, female BALB/c mice
Method: HMC and DHE were prepared as homogenous suspensions in 1% CMC (m:v, water). Both formulations were delivered orally by gavage to female BALB/c mice at a dosage of 50 mg/kg. Three animals were allocated to each timepoint (15 min, 30 min, 1 hr, 4 hr and 24 hr). At each respective timepoint, animals were euthanased by cervical dislocation and blood collected. Free HMC was analysed by mass spectroscopy.

[5] = test system: MM200 melanoma cell line; test: HMC combination with cisplatin (synergy); type: cell-based; conditions: for IC50: Table 8, single agent
Method: as §1
3-D model analysis of the cytotoxic interaction between drug A and drug B enables the representation of predicted inhibitory effect of two drugs in combination in 3 dimensions to reveal actual regions of synergy or antagonism. The 3D synergy plots are based on a theory of “Theretical Additivity” (TA) as outlined by Kanzawa et al (Int. J. Cancer 71, 311-319 (1997)). Theoretical Additivity was calculated from the cytotoxicities of drug A and drug B as monotherapies using the following formula which assumes the drugs are mutually exclusive inhibitors: […]
The TA is calculated for each combination of drug concentrations and subtracted from the observed experimental effect for each combination to give a measurement of synergisitic action.
HMC synergy with cisplatin was assessed either in combination over 5 days exposure or in sequence (HMC→cisplatin) against the MM200 melanoma cell line. It was difficult to assess for synergisitic toxicity using a change in IC50 as a measure of synergy due to HMC toxicity as monotherapy (Table 8). […] Evidence of synergy using the HMC-cisplatin combination was further assessed using the HMC→cisplatin sequence (24 hr exposure to each compound in sequence) against the melanoma cell line MM200. Using change in IC50 to assess for synergy it was noted that HMC at concentrations of 2 μM markedly chemosensitised the MM200 cells to cisplatin by >1000 fold (Table 8). HMC induced chemosensitisation of MM200 cells to cisplatin was confirmed using 3D analysis of the data (FIG. 11B).

SMILES: COc1ccc(C2c3ccc(O)cc3OCC2c2ccc(O)cc2)cc1 (centres unmarked) [Compound 1, 3-(4-hydroxyphenyl)-4-(4-methoxyphenyl)chroman-7-ol]
- IC50 ([1]; Table 2.1, Pancreatic CRL-2119): 14.1 ± 1.16 µM
- IC50 ([1]; Table 2.2, Pancreatic HPAC): 2.8 ± 0.9 µM
- IC50 ([2]; Table 1, Neonatal Foreskin Fibroblasts (Human, NFF)): 86.1 ± 7.6 µM
- IC50 ([2]; NFF): 86 µM
- IC50 [3]: 2.26 µM
- concentration at 0.25 hr ([4]; female, BALB/c, mouse, plasma, po, 50 mg/kg p.o., Time 0.25, read-out: Free plasma concentration): 380 ± 40 nM
- concentration at 0.5 hr ([4]; female, BALB/c, mouse, plasma, po, 50 mg/kg p.o., Time 0.5, read-out: Free plasma concentration): 1300 ± 200 nM
- concentration at 1 hr ([4]; female, BALB/c, mouse, plasma, po, 50 mg/kg p.o., Time 1, read-out: Free plasma concentration): 950 ± 400 nM
- concentration at 4 hr ([4]; female, BALB/c, mouse, plasma, po, 50 mg/kg p.o., Time 4, read-out: Free plasma concentration): 190 ± 80 nM
- concentration at 24 hr ([4]; female, BALB/c, mouse, plasma, po, 50 mg/kg p.o., Time 24, read-out: Free plasma concentration): 0 nM
- maximum plasma concentration of the free form ([4]; oral 50 mg/kg): 1.3 µM
- ratio of free:total ([4]; oral 50 mg/kg): 0.92
- time of maximum free concentration ([4]; oral 50 mg/kg): 30 min
- IC50 ([5]; 120 h, 5 days exposure, read-out: IC50, Combined (monotherapy)): 0.72 µM
- Change Factor (HMC first) ([5]; HMC 1 uM 24 hr then cisplatin 24 hr): −1.31
- Change Factor (HMC first) ([5]; HMC 2 uM 24 hr then cisplatin 24 hr): >10000
- chemosensitisation of MM200 cells to cisplatin (change in IC50) ([5]; HMC 2 μM, HMC→cisplatin sequence): > 1000 fold
- Change Factor (HMC first) ([5]; HMC 5 uM 24 hr then cisplatin 24 hr): >10000
- Change Factor (HMC first) ([5]; HMC 10 uM 24 hr then cisplatin 24 hr): >10000
- IC50 ([5]; 24 hr exposure, read-out: IC50, 24 hr (monotherapy)): 20.6 µM
